Patent US20140309188A1, “USE OF PHARMACEUTICAL COMPOSITION COMPRISING DEOXYNUCLEOSIDE AND NUCLEOSIDE FOR TREATMENT OF TUMOR” (priority 2011, published 2014)
Where “and” joins values, the source holds several entries; their conditions need not be identical. Equal entries are not always repeated.

How the values were obtained:
Format in all cases: cell-based
[1] = system: Human hepatoma cells BEL-7402; assay: MTT growth inhibition on human hepatoma cells BEL-7402; settings: for Growth inhibition rate (%) on Bel-7402: Example 3, concentrations same as Example 1; for inhibition at 10000 µM (stock): Homo sapiens, Bel-7402, read-out: Growth inhibition rate (%) on tumor cells Bel-7402
Description: (§1) Human hepatoma cells BEL-7402 and human lung cancer cells PG provided by Institute of Biochemistry and Cell Biology, SIBS, CAS were cultured in the culture medium RPMI 1640 comprising 10% fetal bovine serum. The cells in the exponential growth phase were collected, digested with 0.25% trypsin, inoculated to a 96-well plate with each well having 3×10^3 cells, and then cultured in an incubator having 5% CO2 at 37° C. for 24 hours. Each experimental group was provided with 8 wells. 60 μL of a nucleoside solution having a total concentration of 10.0 mmol/L was added to each well, and the culture medium was replenished to ensure each well to have a volume of 200 μL. The control group was administered with 5-FU having the same concentration as the nucleoside solution. The obtained cells were diluted with serum-free medium and filtered with sterile microporous membrane having an aperture size of 0.22 μm. […] Thereafter, 20 μL of MTT solution having a concentration of 5 mg/mL was added to each well of the 96-well plate, which was further cultured in the incubator having 5% CO2 at 37° C. for 4 hours. After the culture, the supernate in the wells was removed. 150 μL of DMSO was added to each well. The 96-well plate was shaken for 10 minutes to facilitate the dissolution of the crystals. An automatic microplate reader (Thermo, Multiskan MK3) was employed to measure the absorbancy at 570 nm. Each experimental group was provided with 8 wells, and each experiment was repeated for three times. Table 1 lists the average value of the three experiments.
(§2) Survival rate of tumor cells (%)=measured OD value of experimental wells/OD value of wells of control group
(§3) Growth inhibition rate of tumor cells=100%−Survival rate of tumor cells (%)
1. Experimental method: The experimental groups and the control group were administered with different nucleosides or a combination thereof, as listed in Table 3. Human hepatoma cells Bel-7402 was provided by Institute of Biochemistry and Cell Biology, SIBS, CAS. The experimental method was the same as that in Example 1. The concentrations of the nucleoside combination, the single nucleoside, and 5-FU are all the same as that in Example 1.

[2] = system: human lung cancer cells PG; assay: MTT growth inhibition on human lung cancer cells PG; settings: 48 hours, 60 μL of 10.0 mmol/L solution per 200 μL well, average of three experiments; for inhibition at 10000 µM (stock): Homo sapiens, read-out: Growth inhibition rate (%) on tumor cells PG
Description: (§4) Human hepatoma cells BEL-7402 and human lung cancer cells PG provided by Institute of Biochemistry and Cell Biology, SIBS, CAS were cultured in the culture medium RPMI 1640 comprising 10% fetal bovine serum. The cells in the exponential growth phase were collected, digested with 0.25% trypsin, inoculated to a 96-well plate with each well having 3×10^3 cells, and then cultured in an incubator having 5% CO2 at 37° C. for 24 hours. Each experimental group was provided with 8 wells. 60 μL of a nucleoside solution having a total concentration of 10.0 mmol/L was added to each well, and the culture medium was replenished to ensure each well to have a volume of 200 μL. The control group was administered with 5-FU having the same concentration as the nucleoside solution. The obtained cells were diluted with serum-free medium and filtered with sterile microporous membrane having an aperture size of 0.22 μm. 48 hours later, cell morphology was observed and photographed by an inverted microscope. Thereafter, 20 μL of MTT solution having a concentration of 5 mg/mL was added to each well of the 96-well plate, which was further cultured in the incubator having 5% CO2 at 37° C. for 4 hours. After the culture, the supernate in the wells was removed. 150 μL of DMSO was added to each well. The 96-well plate was shaken for 10 minutes to facilitate the dissolution of the crystals. An automatic microplate reader (Thermo, Multiskan MK3) was employed to measure the absorbancy at 570 nm. Each experimental group was provided with 8 wells, and each experiment was repeated for three times. Table 1 lists the average value of the three experiments.
as §2, §3

[3] = system: Human colon cancer cell line HT-29; assay: MTT growth inhibition on human colon cancer cell line HT-29; settings: 48 hours; concentrations same as Example 1 (total 10.0 mmol/L solution, 60 μL per 200 μL well)
Description: as §4, §2, §3
(§5) The experimental groups and the control group were administered with different nucleosides or a combination thereof, as listed in Table 2. Human colon cancer cell line HT-29 was provided by the Institute of Basic Medical Sciences (IBMS) of the Chinese Academy of Medical Sciences (CAMS). The experimental method was the same as that in Example 1. The concentrations of the nucleoside combination, the single deoxynucleoside, and 5-FU are all the same as that in Example 1.

[4] = system: Human gastric cancer cell lines BGC823; assay: MTT growth inhibition on human gastric cancer cell lines BGC823; settings: concentrations same as Example 1
Description: as §1, §2, §3
as §5, with “4.” for “2.”, “gastric” for “colon”, “lines BGC823” for “line HT-29”

[5] = system: Human breast cancer cell lines Bcap-37; assay: MTT growth inhibition on human breast cancer cell lines Bcap-37; settings: concentrations same as Example 1
Description: as §4, §2, §3
as §5, with “5.” for “2.”, “breast” for “colon”, “lines Bcap-37” for “line HT-29”, “nucleoside,” for “deoxynucleoside,”

[6] = system: Human cervical carcinoma Hela; assay: MTT growth inhibition on human cervical carcinoma Hela; settings: concentrations same as Example 1
[7] = system: Human glioma cell line SHG-44; assay: MTT growth inhibition on human glioma cell line SHG-44; settings: concentrations same as Example 1
Description: as §4, with “After the culture, the supernate in the wells was removed. 150 μL of DMSO was added to each well. The 96-well plate was shaken for 10 minutes to facilitate the dissolution of the crystals.” left out, “Each experimental group was provided with 8 wells, and each experiment was repeated for three times. Table 1 lists the average value of the three experiments.” left out
Survival rate of tumor cells (%)=measured OD value of experimental wells/OD value of wells of control group […]

[8] = system: Human pancreatic cancer cell line PANC-1; assay: MTT growth inhibition on human pancreatic cancer cell line PANC-1; settings: different dosage ratios of dA, dG, C, total concentration same as Example 1
[9] = 48 hours, 60 μL of 10.0 mmol/L solution per 200 μL well, MTT, average of three experiments

## O=c1[nH]cc(F)c(=O)[nH]1 [5-FU, reference compound]
[1]; [9]
  Growth inhibition rate (%) on tumor cells Bel-7402: 91%
[1]; 48 hours
  Growth inhibition rate (%) on Bel-7402: 91%
[1]; 72 hours
  Growth inhibition rate (%) on Bel-7402: 95%
[2]
  Growth inhibition rate (%) on tumor cells PG: 90%
[3]
  Growth inhibition rate (%) on HT-29: 96% and 95% and 91% and 93%
[4]; 48 hours
  Growth inhibition rate (%) on BGC823: 91%
[4]; 72 hours
  Growth inhibition rate (%) on BGC823: 95%
[5]; 48 hours
  Growth inhibition rate (%) on Bcap-37: 92%
[5]; 72 hours
  Growth inhibition rate (%) on Bcap-37: 95%
[6]; 48 hours
  Growth inhibition rate (%) on Hela: 92%
[6]; 72 hours
  Growth inhibition rate (%) on Hela: 96%
[7]; 48 hours
  Growth inhibition rate (%) on SHG-44: 91%
[7]; 72 hours
  Growth inhibition rate (%) on SHG-44: 96%
[8]; 48 hours
  Growth inhibition rate (%) on human pancreatic cancer cell line PANC-1: 93%
[8]; 72 hours
  Growth inhibition rate (%) on human pancreatic cancer cell line PANC-1: 95%

## Nc1ncnc2c1ncn2[C@@H]1O[C@H](CO)[C@@H](O)[C@H]1O [A, adenosine]
[1]; [9]
  inhibition at 10000 µM (stock): 86%
[2]
  inhibition at 10000 µM (stock): 84%

## Nc1ccn([C@@H]2O[C@H](CO)[C@@H](O)[C@H]2O)c(=O)n1 [C, cytidine]
[1]; [9]
  inhibition at 10000 µM (stock): 65%
[2]
  inhibition at 10000 µM (stock): 53%
[5]; 48 hours
  Growth inhibition rate (%) on Bcap-37: 65%
[5]; 72 hours
  Growth inhibition rate (%) on Bcap-37: 71%

## Nc1nc2c(ncn2[C@@H]2O[C@H](CO)[C@@H](O)[C@H]2O)c(=O)[nH]1 [G, guanosine]
[1]; [9]
  inhibition at 10000 µM (stock): 83%
[2]
  inhibition at 10000 µM (stock): 87%

## Cc1cn([C@H]2C[C@H](O)[C@@H](CO)O2)c(=O)[nH]c1=O [T, thymidine]
[1]; [9]
  inhibition at 10000 µM (stock): 87%
[2]
  inhibition at 10000 µM (stock): 88%
[3]
  Growth inhibition rate (%) on HT-29: 85%

## O=c1ccn([C@@H]2O[C@H](CO)[C@@H](O)[C@H]2O)c(=O)[nH]1 [U, uridine]
[1]; [9]
  inhibition at 10000 µM (stock): 49%
[2]
  inhibition at 10000 µM (stock): 52%
[5]; 48 hours
  Growth inhibition rate (%) on Bcap-37: 58%
[5]; 72 hours
  Growth inhibition rate (%) on Bcap-37: 67%

## Nc1ncnc2c1ncn2[C@H]1C[C@H](O)[C@@H](CO)O1 [dA, deoxyadenosine]
[1]; [9]
  inhibition at 10000 µM (stock): 96%
[2]
  inhibition at 10000 µM (stock): 94%
[3]
  Growth inhibition rate (%) on HT-29: 86%
[4]; 48 hours
  Growth inhibition rate (%) on BGC823: 89%
[4]; 72 hours
  Growth inhibition rate (%) on BGC823: 91%

## Nc1ccn([C@H]2C[C@H](O)[C@@H](CO)O2)c(=O)n1 [dC, deoxycytidine]
[1]; [9]
  inhibition at 10000 µM (stock): 86%
[2]
  inhibition at 10000 µM (stock): 84%
[3]
  Growth inhibition rate (%) on HT-29: 89%

## Nc1nc2c(ncn2[C@H]2C[C@H](O)[C@@H](CO)O2)c(=O)[nH]1 [dG, deoxyguanosine]
[1]; 48 hours
  Growth inhibition rate (%) on Bel-7402: 87%
[1]; 72 hours
  Growth inhibition rate (%) on Bel-7402: 93%
[1]; [9]
  inhibition at 10000 µM (stock): 95%
[2]
  inhibition at 10000 µM (stock): 96%
[3]
  Growth inhibition rate (%) on HT-29: 91%
[4]; 48 hours
  Growth inhibition rate (%) on BGC823: 85%
[4]; 72 hours
  Growth inhibition rate (%) on BGC823: 90%
